target: T1, Syk kinase (Homo sapiens, UniProt P43405); test: ELISA-based Syk kinase assay (phosphorylation of HS1 peptide substrate by isolated Syk kinase); format: biochemical; conditions: IC50 of Syk kinase inhibition; 2 μM ATP, 2 μM peptide substrate
T1 construct: purchased Millipore 14-314
Method: Compounds were tested for the ability to inhibit Syk kinase catalyzed phosphorylation of a peptide substrate in an assay with isolated Syk kinase.
An assay was carried out in a Costar white 96 well plate (Fisher Scientific, Cat No. 07-200-591) coated overnight with 0.01 mg/ml Neutravidin (Pierce, 100 μl/well) at 4° C. Neutravidin pre-coated 96 well plates were blocked with 2% BSA in PBST buffer for at least 1 hour before starting the assay at room temperature. Serially diluted compound stock solution containing a subject compound was prepared separately in DMSO solution starting from 300 μM and 2 μl of this diluted compound (3% DMSO final concentration) was added directly to neutravidin coated assay plate containing 55.5 μl/well of kinase reaction buffer composed of 20 mM HEPES, pH 7.4, 5 mM MgCl2, 2 mM MnCl2, 1 mM DTT, 0.01% Tween 20 pre-mixed with ATP and kinase substrate (HS1 peptide). Reaction was initiated by adding of 2.5 μl/well Syk kinase (Millipore, Cat No. 14-314) resulting in a final reaction volume of 60 μl and then the reaction was allowed to continue for 30 minutes at room temperature. Final enzyme reaction conditions were 20 mM HEPES, pH 7.4, 5 mM MgCl2, 2 mM MnCl2, 1 mM DTT, 0.01% Tween 20, 0.25 ng Syk, 2 μM ATP, 2 μM peptide substrate (Biotin-EQEDEPEGDYEEVLE-CONH2, SynPep Corporation). After completing the reaction, assay plate was washed three times with PBST and incubated for 1 hour at room temperature with 100 μl/well of phosphopeptide detection antibody solution prepared by mixing 1-1000 diluted mouse anti-pTyr monoclonal antibody (Cell Signal Technology, Cat No. 9411) and 1-1000 diluted goat HRP-conjugated anti-mouse IgG (Jackson Immunoresearch, Cat. No. 115-035-003). Before developing the plate with supersignal ELISA pico chemiluminescent substrate (Pierce), plate was washed three times again with PBST and were read on a SpectraMax M5 microplate reader (Moleculear Devices).

SMILES | IC50 [µM]
COc1cc(-c2[nH]c3c(C#N)cnn3c2Nc2ccc3c(c2)OCCO3)cc(O)c1OC [Compound 70] | 0.51 to 2.99
COc1ccc(CC(=O)Nc2c(-c3cc(OC)c(OC)c(OC)c3)[nH]c3c(C#N)cnn23)cc1OC [Compound 42] | > 25
COc1cc(-c2[nH]c3c(C#N)cnn3c2NC(=O)c2ccc(F)cc2)cc(OC)c1OC [Compound 20] | 3 to 25
CC(=O)Nc1ccc(Nc2c(-c3ccc4c(c3)OCCO4)[nH]c3c(C#N)cnn23)cc1 [Compound 63] | 3 to 25
COc1cccc(CNc2c(-c3ccc4c(c3)NC(=O)CO4)[nH]c3c(C#N)cnn23)c1 [Compound 35] | 3 to 25
COc1cc(-c2[nH]c3c(C#N)cnn3c2Nc2ccc(CNC(=O)OC(C)(C)C)cc2)cc(OC)c1OC [Compound 65] | 0.51 to 2.99
COc1cc(Nc2c(-c3cc(OC)c(OC)c(OC)c3)[nH]c3c(C#N)cnn23)ccc1OCCN1CCCC1 [Compound 129] | 0.51 to 2.99
COc1ccc(CCNc2c(-c3cc(OC)c(OC)c(OC)c3)[nH]c3c(C#N)cnn23)cc1OC [Compound 41] | > 25
COc1cc(-c2[nH]c3c(C#N)cnn3c2NC(C)(C)CC(C)(C)C)cc(OC)c1OC [Compound 11] | > 25
COC(=O)c1cccc(Nc2c(-c3cc(OC)c(OC)c(OC)c3)[nH]c3c(C#N)cnn23)c1 [Compound 67] | 0.51 to 2.99
COc1cc(Nc2c(-c3cc(OC)c(OC)c(OC)c3)[nH]c3c(C#N)cnn23)ccc1OC1CCCC1 [Compound 128] | 0.51 to 2.99
N#Cc1cnn2c(Nc3ccc(N4CCOCC4)cc3)c(-c3ccc4cc[nH]c4c3)[nH]c12 [Compound 27] | 0.51 to 2.99
COc1cc(-c2[nH]c3c(C#N)cnn3c2NC(=O)c2ccc(C(F)(F)F)c(F)c2)cc(OC)c1OC [Compound 18] | 3 to 25
COc1ccc(Nc2c(-c3cc(OC)c(OC)c(OC)c3)[nH]c3c(C#N)cnn23)cc1OC1CCCC1 [Compound 115] | 0.51 to 2.99
N#Cc1cnn2c(Nc3ccc(Br)cc3)c(-c3ccc(N4CCOCC4)cc3)[nH]c12 [Compound 80] | 0.51 to 2.99
COc1cccc(CNc2c(-c3cc(OC)c(OC)c(OC)c3)[nH]c3c(C#N)cnn23)c1 [Compound 46] | 3 to 25
COc1cc(-c2[nH]c3c(C#N)cnn3c2NC(=O)CBr)cc(OC)c1OC [Compound 53] | > 25
N#Cc1cccc(Nc2c(-c3ccc4c(c3)NC(=O)CO4)[nH]c3c(C#N)cnn23)c1 [Compound 9] | 3 to 25

SMILES | IC50 [µM]
COc1ccc(-n2cc(C#N)c3nc(-c4cc(OC)c(OC)c(OC)c4)c(N)n32)cc1 [Compound 82] | 3 to 25
COc1cc(Nc2c(-c3ccc(N4CCOCC4)cc3)[nH]c3c(C#N)cnn23)cc(OC)c1OC [Compound 79] | 3 to 25
COc1cc(-c2[nH]c3c(C#N)cnn3c2Nc2cccc(OC(F)(F)F)c2)cc(OC)c1OC [Compound 110] | 0.51 to 2.99
COc1cccc(C(=O)Nc2c(-c3cc(OC)c(OC)c(OC)c3)[nH]c3c(C#N)cnn23)c1 [Compound 21] | > 25
COc1cc(-c2[nH]c3c(C#N)cnn3c2Nc2ccc(N3CCC(N4CCCC4)CC3)c(F)c2)cc(OC)c1OC [Compound 75] | 0.51 to 2.99
N#Cc1cnn2c(Nc3ccc4c(c3)OCCO4)c(-c3ccc4cc[nH]c4c3)[nH]c12 [Compound 60] | 3 to 25
COc1cc(-c2[nH]c3c(C#N)cnn3c2NC(=O)c2nnc(-c3ccccc3)o2)cc(OC)c1OC [Compound 39] | 3 to 25
COc1cc(-c2[nH]c3c(C#N)cnn3c2NCC2CCN(C(=O)OC(C)(C)C)CC2)cc(OC)c1OC [Compound 73] | 3 to 25
COc1cc(-c2[nH]c3c(C#N)cnn3c2NCC2CCNCC2)cc(OC)c1OC [Compound 74] | 3 to 25
COc1cc(-c2[nH]c3c(C#N)cnn3c2N)cc(OC)c1OC [Compound 17] | 3 to 25
COC(=O)c1cccc(Nc2c(-c3cc(Cl)c(OC)c(OC)c3)[nH]c3c(C#N)cnn23)c1 [Compound 78] | 3 to 25
COc1cc(-c2[nH]c3c(C#N)cnn3c2Nc2ccc(F)c(C(F)(F)F)c2)cc(OC)c1OC [Compound 130] | 0.51 to 2.99
COc1ccc2c(-c3[nH]c4c(C#N)cnn4c3Nc3ccc(NC(C)=O)cc3)c[nH]c2c1 [Compound 62] | 3 to 25
COc1cc(-c2[nH]c3c(C#N)cnn3c2Nc2ccc(N3CCCC3)c(F)c2)cc(OC)c1OC [Compound 134] | 0.51 to 2.99
COc1cc(Nc2c(-c3cc(OC)c(OC)c(OC)c3)[nH]c3c(C#N)cnn23)cc(OC)c1OC [Compound 29] | 3 to 25
CC(=O)Nc1ccc(-c2[nH]c3c(C#N)cnn3c2Nc2cccc(NC(C)=O)c2)cc1 [Compound 34] | 3 to 25
CC(=O)Nc1ccc(Nc2c(-c3ccc4c(c3)NC(=O)CO4)[nH]c3c(C#N)cnn23)cc1 [Compound 68] | 3 to 25

Next, values leading:

IC50 [µM] | SMILES
3 to 25 | COc1cc(Nc2c(-c3ccc4cc[nH]c4c3)[nH]c3c(C#N)cnn23)cc(OC)c1OC [Compound 26]
0.51 to 2.99 | COc1ccc(Nc2c(-c3cc(Cl)c(OC)c(OC)c3)[nH]c3c(C#N)cnn23)cc1OC [Compound 58]
0.51 to 2.99 | COC(=O)COc1ccc(-c2[nH]c3c(C#N)cnn3c2Nc2cccc(C(=O)OC)c2)cc1OC [Compound 84]
0.51 to 2.99 | COc1ccc(Nc2c(-c3ccc(F)c(F)c3)[nH]c3c(C#N)cnn23)cc1OC [Compound 37]
3 to 25 | COC(=O)[C@H](Cc1ccccc1)Nc1c(-c2cc(OC)c(OC)c(OC)c2)[nH]c2c(C#N)cnn12 [Compound 76]
0.51 to 2.99 | COC(=O)c1cccc(Nc2c(-c3ccc(OC)c(OC)c3)[nH]c3c(C#N)cnn23)c1 [Compound 77]
3 to 25 | COc1ccc(Nc2c(-c3ccc(F)cc3F)[nH]c3c(C#N)cnn23)cc1OC [Compound 36]
0.51 to 2.99 | COC(=O)COc1ccc(-c2[nH]c3c(C#N)cnn3c2Nc2ccc(F)c(OC)c2)cc1OC [Compound 123]
0.51 to 2.99 | COc1cc(-c2[nH]c3c(C#N)cnn3c2Nc2ccc(C)c(F)c2)cc(OC)c1OC [Compound 121]
0.51 to 2.99 | COC(=O)c1cccc(Nc2c(-c3ccc(OC)c(OCC(=O)O)c3)[nH]c3c(C#N)cnn23)c1 [Compound 86]
0.51 to 2.99 | COc1cc(-c2[nH]c3c(C#N)cnn3c2Nc2ccc(OC(F)(F)F)cc2)cc(OC)c1OC [Compound 131]
3 to 25 | COc1ccc(CCNc2c(-c3ccc4c(c3)NC(=O)CO4)[nH]c3c(C#N)cnn23)cc1OC [Compound 40]
3 to 25 | COc1cc(-c2[nH]c3c(C#N)cnn3c2NC(=O)c2ccccc2)cc(OC)c1OC [Compound 19]
> 25 | COc1cc(-c2[nH]c3c(C#N)cnn3c2NC(=O)COc2ccccc2)cc(OC)c1OC [Compound 54]
0.51 to 2.99 | COc1cc(-c2[nH]c3c(C#N)cnn3c2Nc2ccc(Cl)c(Cl)c2)cc(OC)c1OC [Compound 22]
0.51 to 2.99 | COc1cc(-c2[nH]c3c(C#N)cnn3c2Nc2ccc(OC)c(OC)c2)ccc1F [Compound 59]
3 to 25 | COc1ccc(Nc2c(-c3cc(F)c(F)c(F)c3)[nH]c3c(C#N)cnn23)cc1OC [Compound 57]
0.51 to 2.99 | COc1ccc(-c2[nH]c3c(C#N)cnn3c2Nc2ccc(NC(C)=O)cc2)cc1OC [Compound 69]
3 to 25 | COc1cc(-c2[nH]c3c(C#N)cnn3c2Nc2ccc(CN)cc2)cc(OC)c1OC [Compound 66]
3 to 25 | COc1ccc(Nc2c(Cc3ccccc3)[nH]c3c(C#N)cnn23)cc1OC [Compound 55]

Reference: patent US8377945B2, “Small molecule inhibitors of spleen tyrosine kinase (SYK)” (Rigel Pharmaceuticals Inc., priority 2009, dated 2013)
